In the NIST ThermoML archive (doi:10.1016/j.jct.2008.07.008):

Columns and labels:
[1] = refractive index (Na D-line) (dimensionless); details: 101.33 kPa, Liquid, Standard Abbe refractometry
[2] = refractive index (Na D-line) (dimensionless); xn = mol fraction of the nth substance listed; details: 101 kPa, Liquid, Standard Abbe refractometry

CCCCCCCC [octane]
[1]
Details | refractive index
277.8 K | 1.404
279.68 K | 1.4032
280.36 K | 1.4028
280.51 K | 1.4027
281.66 K | 1.4021
282.65 K | 1.4017
283.88 K | 1.4012
284.73 K | 1.4007

N#Cc1ccccc1 [benzonitrile]
[1]
Details | refractive index
277.43 K | 1.5321
278.33 K | 1.5318
279.49 K | 1.5312
280.36 K | 1.5307
280.38 K | 1.5307
280.86 K | 1.5305
281.97 K | 1.5299
284.13 K | 1.5289

N#Cc1ccccc1 [benzonitrile] + CCCCCCCC
[2]
Details | refractive index
280.36 K, x1 = 0.092 | 1.4104
280.36 K, x1 = 0.244 | 1.4248
280.36 K, x1 = 0.344 | 1.4353
280.36 K, x1 = 0.558 | 1.4613
280.36 K, x1 = 0.644 | 1.4726
280.36 K, x1 = 0.762 | 1.4901
280.36 K, x1 = 0.821 | 1.4996
280.36 K, x1 = 0.927 | 1.5176
280.36 K, x1 = 1 | 1.5307
282.93 K, x1 = 0.558 | 1.4599
283.35 K, x1 = 0.344 | 1.4339
283.66 K, x1 = 0.558 | 1.4597
283.67 K, x1 = 0.344 | 1.4337
284.57 K, x1 = 0.344 | 1.4333
284.78 K, x1 = 0.558 | 1.4591
285.65 K, x1 = 0.344 | 1.4327
285.74 K, x1 = 0.558 | 1.4586
286.64 K, x1 = 0.558 | 1.4583
286.73 K, x1 = 0.344 | 1.4322
287.64 K, x1 = 0.558 | 1.4578
287.77 K, x1 = 0.344 | 1.4318
288.61 K, x1 = 0.558 | 1.4574
288.82 K, x1 = 0.344 | 1.4313

CCCCCCCC [octane] + N#Cc1ccccc1
Details | refractive index
[2], 280.36 K, x2 = 0 | 1.4028
